Test results reported in ChEMBL document CHEMBL3864142, “Allicin-inspired thiolated fluoroquinolones as antibacterials against ESKAPE pathogens” (2016).
Converted amounts (≈) assume the structure as drawn. The source made the active and inactive calls. No cut-off for these calls is given here.

Columns and labels:
[1] = test system: Enterococcus faecium; assay: Antibacterial activity against vancomycin-resistant Enterococcus faecium ATCC 700221 at 10 uM by disc diffusion method; assay type: functional; details: read-out: DIZ
[2] = test system: Staphylococcus aureus; assay: Antibacterial activity against methicillin-resistant Staphylococcus aureus BAA-1747 at 10 uM by disc diffusion method; assay type: functional; details: read-out: DIZ
[3] = test system: Klebsiella pneumoniae; assay: Antibacterial activity against ESBL-producer Klebsiella pneumoniae K6 700603 at 10 uM by disc diffusion method; assay type: functional; details: read-out: DIZ
[4] = test system: Acinetobacter baumannii; assay: Antibacterial activity against ciprofloxacin-resistant Acinetobacter baumannii BAA-1605 at 10 uM by disc diffusion method; assay type: functional; details: read-out: DIZ
[5] = test system: Pseudomonas aeruginosa; assay: Antibacterial activity against Pseudomonas aeruginosa ATCC 15442 at 10 uM by disc diffusion method; assay type: functional; details: read-out: DIZ
[6] = test system: Enterobacter cloacae; assay: Antibacterial activity against Enterobacter cloacae ATCC 23355 at 10 uM by disc diffusion method; assay type: functional; details: read-out: DIZ
[7] = test system: Enterococcus faecalis; assay: Antibacterial activity against vancomycin-susceptible Enterococcus faecalis ATCC 29212 at 10 uM by disc diffusion method; assay type: functional; details: read-out: DIZ
[8] = test system: Staphylococcus aureus; assay: Antibacterial activity against methicillin-susceptible Staphylococcus aureus ATCC 29213 at 10 uM by disc diffusion method; assay type: functional; details: read-out: DIZ
[9] = Antibacterial activity against vancomycin-intermediate resistant Staphylococcus aureus Mu50 ATCC 700699 at 10 uM by disc diffusion method; assay type: functional, Staphylococcus aureus subsp. aureus Mu50; details: read-out: DIZ
[10] = test system: Acinetobacter baumannii; assay: Antibacterial activity against Acinetobacter baumannii ATCC 19606 at 10 uM by disc diffusion method; assay type: functional; details: read-out: DIZ
[11] = Antibacterial activity against Bacillus anthracis Sterne 34F2 at 10 uM by disc diffusion method; assay type: functional, Bacillus anthracis str. Sterne; details: read-out: DIZ
[12] = test system: Staphylococcus epidermidis; assay: Antibacterial activity against Staphylococcus epidermidis ATCC 14990 at 10 uM by disc diffusion method; assay type: functional; details: read-out: DIZ
[13] = test system: Staphylococcus aureus; assay: Antibacterial activity against methicillin-susceptible Staphylococcus aureus ATCC 29213 by broth microdilution method; assay type: functional
[14] = test system: Staphylococcus aureus; assay: Antibacterial activity against methicillin-resistant Staphylococcus aureus BAA-1747 by broth microdilution method; assay type: functional
[15] = Antibacterial activity against vancomycin-intermediate resistant Staphylococcus aureus Mu50 ATCC 700699 by broth microdilution method; assay type: functional, Staphylococcus aureus subsp. aureus Mu50
[16] = test system: Staphylococcus aureus; assay: Bactericidal activity against methicillin-susceptible Staphylococcus aureus ATCC 29213 by broth microdilution method; assay type: functional
[17] = test system: Staphylococcus aureus; assay: Bactericidal activity against methicillin-resistant Staphylococcus aureus BAA-1747 by broth microdilution method; assay type: functional
[18] = Bactericidal activity against vancomycin-intermediate resistant Staphylococcus aureus Mu50 ATCC 700699 by broth microdilution method; assay type: functional, Staphylococcus aureus subsp. aureus Mu50
[19] = test system: Staphylococcus aureus; assay: Ratio of MBC to MIC for methicillin-susceptible Staphylococcus aureus ATCC 29213; assay type: functional
[20] = test system: Staphylococcus aureus; assay: Ratio of MBC to MIC for methicillin-resistant Staphylococcus aureus BAA-1747; assay type: functional
[21] = test system: Staphylococcus aureus; assay: Ratio of MBC to MIC for vancomycin-intermediate resistant Staphylococcus aureus Mu50 ATCC 700699; assay type: functional
[22] = Glutathione reactivity assessed as formation of S-(propylthio)glutathione and ciprofloxacin at 1 uM after 2 hrs by ESI-positive MS method
[23] = test system: Staphylococcus aureus; assay: Induction of reactive oxygen species formation in Staphylococcus aureus at 25 uM after 0.5 hrs by DCFH-DA probe-based fluorometric assay relative to control; assay type: functional
[24] = test system: Staphylococcus aureus; assay: Antibacterial activity against Staphylococcus aureus after overnight incubation in presence of antioxidant vitamin E by double-diffusion assay; assay type: functional
[25] = test system: Staphylococcus aureus; assay: Antibacterial activity against Staphylococcus aureus after overnight incubation in presence of GSH by double-diffusion assay; assay type: functional
[26] = test system: Enterococcus faecium; assay: Antibacterial activity against vancomycin-resistant Enterococcus faecium ATCC 700221 at 50 uM by disc diffusion method; assay type: functional; details: read-out: DIZ
[27] = test system: Staphylococcus aureus; assay: Antibacterial activity against methicillin-resistant Staphylococcus aureus BAA-1747 at 50 uM by disc diffusion method; assay type: functional; details: read-out: DIZ
[28] = test system: Klebsiella pneumoniae; assay: Antibacterial activity against ESBL-producer Klebsiella pneumoniae K6 700603 at 50 uM by disc diffusion method; assay type: functional; details: read-out: DIZ
[29] = test system: Acinetobacter baumannii; assay: Antibacterial activity against ciprofloxacin-resistant Acinetobacter baumannii BAA-1605 at 50 uM by disc diffusion method; assay type: functional; details: read-out: DIZ
[30] = test system: Pseudomonas aeruginosa; assay: Antibacterial activity against Pseudomonas aeruginosa ATCC 15442 at 50 uM by disc diffusion method; assay type: functional; details: read-out: DIZ
[31] = test system: Enterobacter cloacae; assay: Antibacterial activity against Enterobacter cloacae ATCC 23355 at 50 uM by disc diffusion method; assay type: functional; details: read-out: DIZ
[32] = test system: Enterococcus faecium; assay: Antibacterial activity against vancomycin-resistant Enterococcus faecium ATCC 700221 at 25 uM in presence of 10 uM ciprofloxacin by disc diffusion method; assay type: functional
[33] = test system: Staphylococcus aureus; assay: Antibacterial activity against methicillin-resistant Staphylococcus aureus BAA-1747 at 25 uM in presence of 10 uM ciprofloxacin by disc diffusion method; assay type: functional
[34] = test system: Klebsiella pneumoniae; assay: Antibacterial activity against ESBL-producer Klebsiella pneumoniae K6 700603 at 25 uM in presence of 10 uM ciprofloxacin by disc diffusion method; assay type: functional
[35] = test system: Acinetobacter baumannii; assay: Antibacterial activity against ciprofloxacin-resistant Acinetobacter baumannii BAA-1605 at 25 uM in presence of 10 uM ciprofloxacin by disc diffusion method; assay type: functional
[36] = test system: Pseudomonas aeruginosa; assay: Antibacterial activity against Pseudomonas aeruginosa ATCC 15442 at 25 uM in presence of 10 uM ciprofloxacin by disc diffusion method; assay type: functional
[37] = test system: Enterobacter cloacae; assay: Antibacterial activity against Enterobacter cloacae ATCC 23355 at 25 uM in presence of 10 uM ciprofloxacin by disc diffusion method; assay type: functional
[38] = test system: Enterococcus faecium; assay: Antibacterial activity against vancomycin-resistant Enterococcus faecium ATCC 700221 at 50 uM in presence of 10 uM ciprofloxacin by disc diffusion method; assay type: functional
[39] = test system: Staphylococcus aureus; assay: Antibacterial activity against methicillin-resistant Staphylococcus aureus BAA-1747 at 50 uM in presence of 10 uM ciprofloxacin by disc diffusion method; assay type: functional
[40] = test system: Klebsiella pneumoniae; assay: Antibacterial activity against ESBL-producer Klebsiella pneumoniae K6 700603 at 50 uM in presence of 10 uM ciprofloxacin by disc diffusion method; assay type: functional
[41] = test system: Acinetobacter baumannii; assay: Antibacterial activity against ciprofloxacin-resistant Acinetobacter baumannii BAA-1605 at 50 uM in presence of 10 uM ciprofloxacin by disc diffusion method; assay type: functional
[42] = test system: Pseudomonas aeruginosa; assay: Antibacterial activity against Pseudomonas aeruginosa ATCC 15442 at 50 uM in presence of 10 uM ciprofloxacin by disc diffusion method; assay type: functional
[43] = test system: Enterobacter cloacae; assay: Antibacterial activity against Enterobacter cloacae ATCC 23355 at 50 uM in presence of 10 uM ciprofloxacin by disc diffusion method; assay type: functional

Row | SMILES | zone of inhibition at 10 µM [1] | zone of inhibition at 10 µM [2] | zone of inhibition at 10 µM [3] | zone of inhibition at 10 µM [4] | zone of inhibition at 10 µM [5] | zone of inhibition at 10 µM [7] | zone of inhibition at 10 µM [8] | zone of inhibition at 10 µM [9] | zone of inhibition at 10 µM [10] | zone of inhibition at 10 µM [11] | MIC [13] | MIC [14] | MIC [15] | MBC [16] | MBC [17] | MBC [18] | Ratio [19] | Ratio [20] | Ratio [21] | fold change (FC) [23] | also measured
1 | CCCSN1CCN(c2cc3c(cc2F)c(=O)c(C(=O)O)cn3C2CC2)CC1 | 0 mm | 24 mm | 25 mm | 0 mm | 32 mm | 28 mm | 29 mm | 11 mm | 27 mm | 38 mm | 0.1 µM (≈ 0.0405 µg/mL) | 1.56 µM (≈ 0.633 µg/mL) | 50 µM (≈ 20.3 µg/mL) | 0.2 µM (≈ 0.0811 µg/mL) | 1.56 µM (≈ 0.633 µg/mL) | 50 µM (≈ 20.3 µg/mL) | 2 | 1 | 1 | 2 - 3 | zone of inhibition at 10 µM [6]: 29 mm; zone of inhibition at 10 µM [12]: 37 mm; Drug metabolism [22]: Metabolite detected; Activity [24]: Active; Activity [25]: Active
2 | CN[C@H](CC(C)C)C(=O)N[C@H]1C(=O)N[C@@H](CC(N)=O)C(=O)N[C@H]2C(=O)N[C@H]3C(=O)N[C@H](C(=O)N[C@H](C(=O)O)c4cc(O)cc(O)c4-c4cc3ccc4O)[C@H](O)c3ccc(c(Cl)c3)Oc3cc2cc(c3O[C@@H]2O[C@H](CO)[C@@H](O)[C@H](O)[C@H]2O[C@H]2C[C@](C)(N)[C@H](O)[C@H](C)O2)Oc2ccc(cc2Cl)[C@H]1O [VANCOMYCIN] |  |  |  |  |  |  |  |  |  |  | 0.1 µM (≈ 0.145 µg/mL) | 0.1 µM (≈ 0.145 µg/mL) | 0.78 µM (≈ 1.13 µg/mL) | 0.1 µM (≈ 0.145 µg/mL) | 0.1 µM (≈ 0.145 µg/mL) | 0.78 µM (≈ 1.13 µg/mL) | 1 | 1 | 1 |  | 
3 | O=C(O)c1cn(C2CC2)c2cc(N3CCNCC3)c(F)cc2c1=O [CIPROFLOXACIN] | 0 mm | 20 mm | 22 mm | 0 mm | 29 mm | 22 mm | 23 mm | 9 mm | 23 mm | 34 mm | 0.1 µM (≈ 0.0331 µg/mL) | 1.56 µM (≈ 0.517 µg/mL) | 50 µM (≈ 16.6 µg/mL) | 0.78 µM (≈ 0.258 µg/mL) | 3.13 µM (≈ 1.04 µg/mL) | 50 µM (≈ 16.6 µg/mL) |  |  |  | 2 - 3 | Activity [24]: Active; Activity [25]: Active
4 | C=CCS[S+]([O-])CC=C (stereo unspecified) [ALLICIN] |  |  |  |  |  |  |  |  |  |  |  |  |  |  |  |  |  |  |  |  | zone of inhibition at 50 µM [26]: 18 mm; zone of inhibition at 50 µM [27]: 28 mm; zone of inhibition at 50 µM [28]: 13 mm; zone of inhibition at 50 µM [29]: 24 mm; zone of inhibition at 50 µM [30]: 0 mm; zone of inhibition at 50 µM [31]: 15 mm; diameter of the inhibition zone (DIZ) [32]: 10 mm; diameter of the inhibition zone (DIZ) [33]: 25 mm; diameter of the inhibition zone (DIZ) [34]: 22 mm; diameter of the inhibition zone (DIZ) [35]: 20 mm; diameter of the inhibition zone (DIZ) [36]: 28 mm; diameter of the inhibition zone (DIZ) [37]: 31 mm; diameter of the inhibition zone (DIZ) [38]: 17 mm; diameter of the inhibition zone (DIZ) [39]: 29 mm; diameter of the inhibition zone (DIZ) [40]: 24 mm; diameter of the inhibition zone (DIZ) [41]: 25 mm; diameter of the inhibition zone (DIZ) [42]: 27 mm; diameter of the inhibition zone (DIZ) [43]: 31 mm
